The source of these data is patent publication US20120295914A1, “COMBINATION OF ADRENERGIC RECEPTOR AGONIST ALPHA-1 OR ALPHA-2, PREFERABLY BRIMONIDINE WITH FILLERS, PREFERABLY HYALURONIC ACID” (Galderma Research & Development, priority 2009, published 2012).

For data set [1] the following is noted: in vivo; cited from earlier work.
Data set [2] has as its system dermabraded skin (cutaneous reactions, redness/bleeding).
Source text: In Vivo Dermabrasion Assays in Minipig Minizone Model Using a BURANE XL Laser and Skin Interaction with Brimonidine Gel
The objectives of this study were to assess the local dermal effect of single dermal application of Brimonidine Gel placebo or 1% applied on delimited abraded mini-zone (2.8 cm^2 and different dermabraded skin conditions) in the Gottingen® minipig.
One female Göttingen® minipig (naïve), between 4 and 8 months old, received Dermal (topical) application of Brimonidine Gel at 1% on delimited mini-zones (2.8 cm^2, using a Ringflost®).
each zone is clipped free from hair. On the clipped area (dorsum, avoiding the spinal column and the intra-scapular area), 4 minizones (2 on either side) is delimited using Ringflost® and surrounded with an indelible pen.
The animal is anesthetized (Zoletil®) before dermabrasion. Each minizone is disinfected with chlorexidine. The experimental conditions used for each zone is set as follows:
The Brimonidine gel 1% is gently applied 5 minutes prior to the dermabrasion procedure.
The cutaneous reaction is evaluated immediately, and 2-5 and 10 minutes after the dermabrasion procedure. The skin is examined to evaluate the degree of erythema, edema, desquamation, scab formation and any other lesions. Cutaneous reaction is evaluated according to the grading scale describe in “OCDE Guideline No. 404. Acute dermal irritation/corrosion”. […]
The target of data set [3] is α2A-adrenoceptor (Sus scrofa, UniProt P18871). To be noted: porcine species; Wikberg-Matsson and Simonsen 2001; cited from earlier work.
Chain of α2A-adrenoceptor (P18871 whole entry): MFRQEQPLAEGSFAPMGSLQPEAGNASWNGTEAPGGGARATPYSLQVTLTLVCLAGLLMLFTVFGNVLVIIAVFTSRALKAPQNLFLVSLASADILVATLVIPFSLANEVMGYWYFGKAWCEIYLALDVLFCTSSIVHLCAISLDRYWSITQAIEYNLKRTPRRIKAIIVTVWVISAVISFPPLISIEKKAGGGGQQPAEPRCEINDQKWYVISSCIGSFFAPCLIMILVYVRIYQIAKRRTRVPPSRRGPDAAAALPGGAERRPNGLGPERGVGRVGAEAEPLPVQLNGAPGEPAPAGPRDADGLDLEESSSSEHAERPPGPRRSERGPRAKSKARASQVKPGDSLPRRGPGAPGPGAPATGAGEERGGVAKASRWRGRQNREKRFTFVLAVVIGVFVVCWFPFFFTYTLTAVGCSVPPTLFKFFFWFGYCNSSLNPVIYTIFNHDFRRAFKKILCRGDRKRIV

`Brc1c(NC2=NCCN2)ccc2nccnc12` [Brimonidine, (5-Bromo-quinoxalin-6-yl)-(4,5-dihydro-1H-imidazol-2-yl)-amine]: the half-life in data set [1] is 4 h. The “cutaneous reactions (bruising or bleeding) during aesthetic or surgery procedures” value in data set [2] (Brimonidine gel 1% topical on dermabraded minizones, conclusion of Example 3) was “capable of decreasing cutaneous reactions”. For the same molecule, the “vasoconstrictor effect (comparative analysis of pictures Z3 vs Z4)” value in data set [2] (Brimonidine gel 1% topical, applied 5 minutes prior to dermabrasion, 10 j/cm2, 6 passes, treated zone Z4 vs non-treated Z3, one female minipig) is “visually more evident starting from 5 min post-dermabrasion until 14 min and beyond”. Besides, the vasoconstrictor activity entry in data set [3] is listed as “potent vasoconstrictor”.
